Molecular target: c-kit (Homo sapiens, UniProt P10721)
Test: c-kit assays of Examples 40 and 41 (AlphaScreen kinase assays at 10 and 100 μM ATP, 33P-ATP filter assay, M-07e SCF-stimulated proliferation and phosphorylation)

c-kit, sequence (P10721 with tags, fused parts or gaps): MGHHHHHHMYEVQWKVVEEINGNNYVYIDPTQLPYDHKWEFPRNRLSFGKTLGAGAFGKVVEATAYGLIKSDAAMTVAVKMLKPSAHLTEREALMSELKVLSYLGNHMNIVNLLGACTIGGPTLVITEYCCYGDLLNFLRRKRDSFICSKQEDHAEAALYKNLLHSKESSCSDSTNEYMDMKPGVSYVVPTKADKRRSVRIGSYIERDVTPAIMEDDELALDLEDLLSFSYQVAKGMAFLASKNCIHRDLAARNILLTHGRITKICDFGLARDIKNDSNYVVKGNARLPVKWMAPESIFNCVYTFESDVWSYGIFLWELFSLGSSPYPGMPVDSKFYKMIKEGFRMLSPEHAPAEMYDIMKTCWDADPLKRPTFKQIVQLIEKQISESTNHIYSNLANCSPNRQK

IC50 | Structure (SMILES)
< 1000 nM | COc1ccc(CNc2ccc(Cc3c[nH]c4ncccc34)c(F)n2)cn1 [P-0378, [6-Fluoro-5-(1H-pyrrolo[2,3-b]pyridin-3-ylmethyl)-pyridin-2-yl]-(6-methoxy-pyridin-3-ylmethyl)-amine]
< 1000 nM | N#Cc1cnc2[nH]cc(Cc3ccc(NCc4ccccc4C(F)(F)F)nc3)c2c1 [P-0274, 3-[6-(2-Trifluoromethyl-benzylamino)-pyridin-3-ylmethyl]-1H-pyrrolo[2,3-b]pyridine-5-carbonitrile]
< 1000 nM | Fc1cc(C(F)(F)F)ccc1CNc1ccc(Cc2c[nH]c3ncccc23)cn1 [P-0344, (2-Fluoro-4-trifluoromethyl-benzyl)-[5-(1H-pyrrolo[2,3-b]pyridin-3-ylmethyl)-pyridin-2-yl]-amine]
< 1000 nM | Fc1ccc(Cl)c(CNc2ncc(Cc3c[nH]c4ncccc34)cn2)c1 [P-0407, (2-Chloro-5-fluoro-benzyl)-[5-(1H-pyrrolo[2,3-b]pyridin-3-ylmethyl)-pyrimidin-2-yl]-amine]
< 1000 nM | N#Cc1cnc2[nH]cc(Cc3ccc(NCc4ccc(C(F)(F)F)cc4)nc3)c2c1 [P-0269, 3-[6-(4-Trifluoromethyl-benzylamino)-pyridin-3-ylmethyl]-1H-pyrrolo[2,3-b]pyridine-5-carbonitrile]
< 1000 nM | Fc1ccc(Cl)cc1CNc1ccc(Cc2c[nH]c3ncccc23)cn1 [P-0382, (5-Chloro-2-fluoro-benzyl)-[5-(1H-pyrrolo[2,3-b]pyridin-3-ylmethyl)-pyridin-2-yl]-amine]
< 1000 nM | Fc1cccc(CNc2ncc(Cc3c[nH]c4ncc(Cl)cc34)cn2)c1F [P-0395, [5-(5-Chloro-1H-pyrrolo[2,3-b]pyridin-3-ylmethyl)-pyrimidin-2-yl]-(2,3-difluoro-benzyl)-amine]
< 1000 nM | Fc1ccc(CNc2ncc(Cc3c[nH]c4ncccc34)cn2)c(Cl)c1 [P-0316, (2-Chloro-4-fluoro-benzyl)-[5-(1H-pyrrolo[2,3-b]pyridin-3-ylmethyl)-pyrimidin-2-yl]-amine]
< 1000 nM | Fc1cc(Cl)cc(CNc2ccc(Cc3c[nH]c4ncccc34)cn2)c1 [P-0373, (3-Chloro-5-fluoro-benzyl)-[5-(1H-pyrrolo[2,3-b]pyridin-3-ylmethyl)-pyridin-2-yl]-amine]

Further lines, the compound ahead of its results:

Structure (SMILES) | IC50
FC(F)(F)c1ccc(CNc2ccc(Cc3c[nH]c4ncccc34)cn2)cn1 [P-0182, [5-(1H-Pyrrolo[2,3-b]pyridin-3-ylmethyl)-pyridin-2-yl]-(6-trifluoromethyl-pyridin-3-ylmethyl)-amine] | < 1000 nM
O=C(c1ccc(NCc2cccs2)nc1)c1c[nH]c2ncccc12 [P-0018, (1H-Pyrrolo[2,3-b]pyridin-3-yl)-{6-[(thiophen-2-ylmethyl)-amino]-pyridin-3-yl}-methanone] | < 1000 nM
Cc1ccc(C(=O)Nc2ccc(Cc3c[nH]c4ncccc34)cn2)cn1 [P-0108, 6-Methyl-N-[5-(1H-pyrrolo[2,3-b]pyridin-3-ylmethyl)-pyridin-2-yl]-nicotinamide] | < 1000 nM
FC(F)(F)c1ccc(CNc2nc(Cl)c(Cc3c[nH]c4ncc(Cl)cc34)s2)cn1 [P-0242, [4-Chloro-5-(5-chloro-1H-pyrrolo[2,3-b]pyridin-3-ylmethyl)-thiazol-2-yl]-(6-trifluoromethyl-pyridin-3-ylmethyl)-amine] | < 1000 nM
Fc1ccc(CNc2ncc(Cc3c[nH]c4ncc(Cl)cc34)cn2)c(F)c1 [P-0265, [5-(5-Chloro-1H-pyrrolo[2,3-b]pyridin-3-ylmethyl)-pyrimidin-2-yl]-(2,4-difluoro-benzyl)-amine] | < 1000 nM
COc1ccc(CNc2ccc(Cc3c[nH]c4ncccc34)cn2)cn1 [P-0219, (6-Methoxy-pyridin-3-ylmethyl)-[5-(1H-pyrrolo[2,3-b]pyridin-3-ylmethyl)-pyridin-2-yl]-amine] | < 1000 nM
c1csc(CNc2ccc(Cc3c[nH]c4ncccc34)cn2)c1 [P-0008, [5-(1H-pyrrolo[2,3-b]pyridin-3-ylmethyl)-pyridin-2-yl]-thiophen-2-ylmethyl-amine] | < 1000 nM

From US9487515B2, “Compounds modulating c-fms and/or c-kit activity and uses therefor” (Plexxikon Inc., priority 2006, dated 2016)
